Source: patent US20180008620A1, “METHODS OF TREATING NEUROLOGICAL INFLAMMATORY DISORDERS” (Mayo Foundation for Medical Education and Research, priority 2015, published 2018)

What was measured:
[1] = test system: Neurons cultured from neonatal mice; test: Calcium imaging of spontaneous network activity (GCaMP reporter); assay type: cell-based, mouse; conditions: for correlation of spontaneous activity (Pearson correlation matrix): cytokine-stimulated cultures vs vehicle control (overall uncorrelated); for correlation of spontaneous activity (Pearson correlation matrix) / absolute number of spontaneously active cells: FIG. 7; for absolute number of spontaneously active cells: cytokine-stimulated networks, vehicle control 42 neurons
Method: The PBS control cultures show low amplitude calcium transients that are non-synchronous. […] Calcium levels were monitored using a fluorescent reporter transduced into the neurons with […].
The Pearson correlation matrix was calculated for all of the neurons showing spontaneous activity in the culture and heat-mapped (red=highly correlated activity; blue=uncorrelated activity). In the vehicle control neurons, there is a small cluster of synchronous activity but the overall network is uncorrelated.
Neurons are cultured in glass imaging chambers under conditions that promote formation of mature synaptic networks. Cells are infected with an AAV1.Syn.GCaMP6f calcium reporter that provides fast optical tracking of intracellular calcium levels (Akerboom et al., 2012, J. Neurosci., 32:[…]; Chen et al., 2013, Nature, 499:295-300). Calcium levels are monitored in real-time using a Zeiss 5-Live confocal microscope equipped with environmental chamber. Following collection of baseline spontaneous activity levels at low magnification, inflammatory cytokine is added at the optimal cytokine concentration determined above, and cells are followed for up to 60 minutes. Images are post-processed in Image J to measure calcium transient amplitudes and frequencies within defined cells. In some experiments, an Olympus multi-photon microscope is used at high magnification to track activity in individual synapses. In addition to spontaneous activity, calcium flux elicited by addition of glutamate to cultures that have been pretreated with inflammatory cytokines for different times (0, 1, 3, 6, 12, 24, 48, 72, or 96 hr) prior to stimulation also is measured.
Neurons were cultured from neonatal mice and stimulated with TNF alpha (100 ng/mL) or IFN gamma (500 U/mL) for 24 hr. Following transduction with an AAV-encoded GCaMPf reporter, fast calcium transients were imaged in the cells. Regions of interest outlining individual neurons were defined in each frame of movies collected over several minutes, and the fluorescence intensity of each cell was graphed through time to reveal patterns in the population response.

Mouse cortical neurons [2] = test: IFN gamma-induced transcriptional changes, Illumina BeadArray; assay type: cell-based; conditions: IFN gamma 500 U/mL, 24 hr, vs untreated controls; mean±95% confidence intervals
Method: Cortical neurons were prepared from embryonic day 15 C57BL/6 mouse fetuses, following published protocols (Sauer et al., 2013, Neurobiol. Dis., 59:194-205). In preliminary experiments, after one week in vitro, the neurons were stimulated for 24 hr with IFN gamma (500 U/mL). Quadruplicate RNA samples were collected under treated and untreated conditions, and changes in gene expression were assessed using the Illumina BeadArray system. Only genes that were detected at P<0.05 on the array were considered for further analysis. Expression levels were […] and the relative level of expression following IFN gamma stimulation was compared to untreated controls. Table 1 provides mean±95% confidence intervals; the appropriate statistical test was chosen based on normality and equal variance tests.

Mouse cortical neurons [3] = test: IFN gamma stimulation of distal axons in two-chamber device, microarray of cell body RNA; assay type: cell-based; conditions: IFN gamma added to axon chamber, RNA from cell body chamber 72 hours later
Method: Mouse cortical neurons were cultured in a two-chamber device that separates cell bodies from axons. Panel A is a schematic of the chambered device constructed in PDMS polymer. Panel B is a low-magnification image of the corresponding regions shown in Panel A stained with an antibody against neurofilament (an axon-specific protein). Higher magnification images are shown of the cell body chamber (Panel C), the axon grooves (Panel D), and the axon chamber (Panel E). DAPI staining indicates the complete absence of any cells in the axon chamber. Panel F is a schematic showing the experimental design: IFNgamma was added to the pure axons in the axon chamber; RNA was collected from the cell body chamber 72 hours later and analyzed by microarray to identify changes in gene expression.
Mouse cortical neurons were cultured in a two-chamber device that separates cell bodies from axons.
IFN gamma was added to the pure axons in the axon chamber, and RNA was collected from the cell body chamber 72 hours later. The RNA was analyzed by microarray to identify changes in gene expression.

[4] = TNF alpha 100 ng/mL or IFN gamma 500 U/mL for 24 hr, FIGS. 8B and 8C

Molecule: NCCCC(=O)O [GABA, reference compound]
- averaged calcium responses / synaptic activity ([1]; 27 μM GABA added to control cultures, FIG. 8E): completely suppresses synaptic activity

Molecule: IFN gamma: inflammatory cytokine interferon gamma used to stimulate neurons
- Fold Change, gene Actb (housekeeping) (Mouse cortical neurons [2]): 1.04 ± 0.06 fold
- Fold Change, gene Aldh1a1 (Mouse cortical neurons [2]): 2.46 ± 0.08 fold
- Fold Change, gene Collybistin (Mouse cortical neurons [2]): 0.71 ± 0.06 fold
- Fold Change, gene GABA A R α3 (Mouse cortical neurons [2]): 0.66 ± 0.10 fold
- Fold Change, gene GABA A R β1 (Mouse cortical neurons [2]): 0.56 ± 0.09 fold
- Fold Change, gene GABA A R β2 (Mouse cortical neurons [2]): 0.80 ± 0.09 fold
- Fold Change, gene GABA A R β3 (Mouse cortical neurons [2]): 0.75 ± 0.07 fold
- Fold Change, gene GABA A R γ2 (Mouse cortical neurons [2]): 0.64 ± 0.05 fold
- Fold Change, gene GABA B R2 (Mouse cortical neurons [2]): 0.71 ± 0.10 fold
- Fold Change, gene Gapdh (Mouse cortical neurons [2]): 1.03 ± 0.06 fold
- Fold Change, gene Gch1 (Mouse cortical neurons [2]): 1.59 ± 0.04 fold
- Fold Change, gene Gephyrin (Mouse cortical neurons [2]): 0.75 ± 0.05 fold
- Fold Change, gene Glycine R β1 (Mouse cortical neurons [2]): 0.59 ± 0.07 fold
- Fold Change, gene MOCOS (Mouse cortical neurons [2]): 2.97 ± 0.21 fold
- Fold Change, gene Xdh (Mouse cortical neurons [2]): 1.47 ± 0.14 fold
- averaged calcium responses / network activity [1, 4]: network bursting and highly synchronized synaptic activity
- correlation of spontaneous activity (Pearson correlation matrix) [1]: nearly complete correlation across the entire network
- absolute number of spontaneously active cells [1]: 137 neurons
- GTP cyclohydrolase I expression in neuron cell bodies (Mouse cortical neurons [3]): significantly up-regulated
- MOCOS expression in neuron cell bodies (Mouse cortical neurons [3]): robust up-regulation
- aldehyde dehydrogenase expression in neuron cell bodies (Mouse cortical neurons [3]): significantly up-regulated
- gephyrin expression in neuron cell bodies (Mouse cortical neurons [3]): down-regulation
- glycine receptor beta subunit expression in neuron cell bodies (Mouse cortical neurons [3]): down-regulation
- xanthine dehydrogenase expression in neuron cell bodies (Mouse cortical neurons [3]): significantly up-regulated
- GABA receptor elements expression in neuron cell bodies (Mouse cortical neurons [3]; not shown): down-regulation
- gephyrin-binding scaffolds expression in neuron cell bodies (Mouse cortical neurons [3]; not shown): down-regulation

Molecule: TNF alpha
- averaged calcium responses / network activity [1, 4]: network bursting and highly synchronized synaptic activity
- correlation of spontaneous activity (Pearson correlation matrix) [1]: nearly complete correlation across the entire network
- absolute number of spontaneously active cells [1]: 151 neurons
- spontaneous calcium levels in neurons ([1]; stimulated for 24 hr, vs PBS control with low amplitude non-synchronous transients, FIG. 6): large amplitude calcium signals that were highly synchronized

Molecule: picrotoxin [reference compound]
- averaged calcium responses / network activity ([1]; control cultures treated with 2.4 μM picrotoxin, FIG. 8D): induces network synchrony and bursting
